Series [1] has as its system restenotic lesion and arterial stenosis in stented coronary arteries. As to the kind of experiment: swine model of restenosis with coronary stents eluting Compound A. Type of series: in vivo. The note with it: juvenile swine, poly-n-butyl methacrylate coated stent containing 200 mg Compound A per stent, coronary artery, 7 or 28 days. As to the method:
(§1) The treatment and/or prevention of restenosis in vivo in diabetics and non-diabetics can be evaluated as follows: • 1. The beneficial effects of a compound of the present invention on restenosis are ascertained in a swine model of restenosis. Stainless steel balloon-expandable tubular stents, 18 mm long, are coated with a thin layer of a polymer, i.e., poly-n-butyl methacrylate, containing […] of (R)-1-{4-[5-methyl-2-(4-trifluoromethyl-phenyl)-oxazol-4-ylmethoxy]-benzenesulfonyl}-2,3-dihydro-1H-indole-2-carboxylic acid (Compound A) per stent. Juvenile swine (25-35 kg) undergo placement of bare metal stents which elute Compound A in the left anterior descending, circumflex or right coronary artery. The guiding catheter is used as a reference to obtain a 1.2:1 to 1.4:1 stent-to-artery ratio compared with the baselinevessel diameter. […] At 7 days or 28 days, the animals are euthanized after completion of coronary angiography for quantitative analysis. • Immediately following euthanasia, the hearts are harvested, and the coronary arteries are perfusion-fixed with 10% buffered formalin at 60-80 mm Hg for 30 minutes via the aortic stump. […] Vessel wall expression of proliferating cell nuclear antigen (PCNA) (Santa Cruz Biotechnology), pRb (Pharmingen), monocyte chemotactic protein (MCP)-1 (R&D Systems) or interleukin (IL)-6 (R&D Systems) were evaluated by Western blot analysis. […]

In series [2] the test system is restenotic lesion formation and arterial stenosis in diabetic swine. As to the kind of experiment: diabetic swine model of restenosis. The series is classed as in vivo. The note with it: streptozotocin-diabetic juvenile swine, procedure as in non-diabetic stent model. As to the method:
as §1

Series [3] is described as follows: drug release from coated stent pieces in PBS pH 7.4 or PEG/water. Type of series: physicochemical. To be noted: 2 cm coated stent pieces, PBS pH 7.4 or PEG 400/water 40/60 v/v, 37° C., solutions changed daily. As to the method:
Four 2 cm pieces of coated stents as described above are placed into 100 mL of phosphate buffer solution (PBS) having a pH of 7.4. Another 4 pieces from each series are placed into 100 mL polyethylene glycol (PEG)/water solution (40/60 v/v, MW of PEG=400). The stent pieces are incubated at 37° C. in a shaker. The buffer and PEG solutions are changed daily and different assays are performed on the solution to determine the released (R)-1-{4-[5-methyl-2-(4-trifluoromethyl-phenyl)-oxazol-4-ylmethoxy]-benzenesulfonyl}-2,3-dihydro-1H-indole-2-carboxylic acid concentrations. Such assays can show a stable release of (R)-1-{4-[5-methyl-2-(4-trifluoromethyl-phenyl)-oxazol-4-ylmethoxy]-benzenesulfonyl}-2,3-dihydro-1H-indole-2-carboxylic acid from coated stents for more than 45 days. By the term “stable-release of (R)-1-{4-[5-methyl-2-(4-trifluoromethyl-phenyl)-oxazol-4-ylmethoxy]-benzenesulfonyl}-2,3-dihydro-1H-indole-2-carboxylic acid” is meant less than 10% of variation of the drug release. Controlled-release techniques used by a person skilled in the art allow an unexpected easy adaptation of the required drug release rate. […]

Turning to `Cc1oc(-c2ccc(C(F)(F)F)cc2)nc1COc1ccc(S(=O)(=O)N2c3ccccc3C[C@@H]2C(=O)O)cc1` [Compound A, (R)-1-{4-[5-methyl-2-(4-trifluoromethyl-phenyl)-oxazol-4-ylmethoxy]-benzenesulfonyl}-2,3-dihydro-1H-indole-2-carboxylic acid], the “extent of restenotic lesion and arterial stenosis” value in series [1] is reported as “marked reduction”. Moreover, in series [2], the “extent of restenotic lesion formation and arterial stenosis” value is given as “reduction”. The “duration of stable release from coated stents (less than 10% of variation of the drug release)” value in series [3] was “more than 45 days”.

The values are drawn from patent US20080131475A1, “Methods of Use of Dual Ppar Agonist Compounds and Drug Delivery Devices Containing Such Compounds” (priority 2005, published 2008).
